Laboratory results taken from ChEMBL document CHEMBL1130656, “Thyrotropin releasing hormone analogs: a building block approach to the construction of tetracyclic peptidomimetics” (Bioorg Med Chem Lett, 1998).
Non-standard residues stand in square brackets, D forms with d. Residues, ends and D or L forms follow the SMILES beside them. Cha = N[C@@H](CC1CCCCC1)C(=O)O; pGlu = O=C1CC[C@@H](C(=O)O)N1

Tests used:
[1] = biological target: T1, Thyrotropin-releasing hormone receptor (Mus musculus, UniProt P21761); test: Ability to bind thyroliberin endocrine receptor (TRH-R) using AtT-20 mouse pituitary tumor cells.
T1 sequence (P21761 whole entry): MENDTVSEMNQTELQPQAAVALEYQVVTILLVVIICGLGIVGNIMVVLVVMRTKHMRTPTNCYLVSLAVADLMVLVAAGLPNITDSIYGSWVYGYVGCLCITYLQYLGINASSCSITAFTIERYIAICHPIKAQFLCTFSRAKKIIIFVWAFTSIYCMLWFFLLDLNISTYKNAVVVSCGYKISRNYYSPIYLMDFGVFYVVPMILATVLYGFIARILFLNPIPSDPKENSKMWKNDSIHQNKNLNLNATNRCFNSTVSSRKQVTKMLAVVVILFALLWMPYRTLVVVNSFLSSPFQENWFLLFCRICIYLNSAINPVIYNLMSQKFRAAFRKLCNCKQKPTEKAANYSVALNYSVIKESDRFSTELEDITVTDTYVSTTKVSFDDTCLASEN

[2] = biological target: T1, Thyrotropin-releasing hormone receptor; test: Ability to activate thyroliberin endocrine receptor (TRH-R) using AtT-20 mouse pituitary tumor cells prelabelled with myo-[3H] inositol

Structure (SMILES): NC(=O)[C@@H]1CCCN1C(=O)[C@H](CC1CCCCC1)NC(=O)[C@@H]1CCC(=O)N1 ([pGlu]-[Cha]-Pro-NH2)
- Ki [1]: 6.5 µM
- EC50 [2]: 0.43 µM

Structure (SMILES): NC(=O)[C@@H]1CCC2CC(C3CCCCC3)=C(N3CC[C@]4(CCC(=O)N4)C3=O)C(=O)N21 (single isomer, unassigned; 2a)
- Ki [1]: 1.5 µM
- EC50 [2]: 1.8 µM

Structure (SMILES): NC(=O)[C@@H]1CCC2CC(C3CCCCC3)=C(N3CC[C@]4(CCC(=O)N4)C3=O)C(=O)N21 (single isomer, unassigned; 2b)
- Ki [1]: 36 µM
- EC50 [2]: 18 µM

Structure (SMILES): NC(=O)[C@@H]1CCCN1C(=O)[C@H](Cc1cnc[nH]1)NC(=O)[C@@H]1CCC(=O)N1 [PROTIRELIN]
- Ki [1]: 0.023 µM
- EC50 [2]: 0.00049 µM
